# Source: ChEMBL document CHEMBL1681663, “Design and synthesis of novel tetrahydronaphthyl azoles and related cyclohexyl azoles as antileishmanial agents” (Bioorg Med Chem Lett, 2011)
# Active and inactive are the calls of the source. The rule behind the calls is not given here.
# Key:
# Leishmania donovani [1] = assay: Antileishmanial activity against promastigotes of Leishmania donovani at 10 ug/ml; assay type: functional
# Leishmania donovani [2] = assay: Antileishmanial activity against amastigotes of Leishmania donovani; assay type: functional, organism-based
# [3] = Cytotoxicity against mouse J774A1 cells by MTT assay; assay type: cell-based, J774.A1
# [4] = (§1) Selectivity index, ratio of CC50 for mouse J774A1 cells to IC50 for amastigotes of Leishmania donovani; assay type: functional, J774.A1
# Leishmania donovani [5] = assay: Antileishmanial activity against amastigotes of Leishmania donovani at 10 ug/ml; assay type: functional, organism-based
# Leishmania donovani [6] = assay: Antileishmanial activity against Leishmania donovani infected in Hamster assessed as inhibition of parasites growth at 50 mg/kg, ip for 5 times; assay type: functional; conditions: for inhibition in vivo at 50 mg/kg: route intraperitoneal
# J774.A1 = assay: as §1; assay type: functional
Compound,IC50 (Leishmania donovani [2]),inhibition at 10 µg/mL (Leishmania donovani [1]),CC50 [3],Ratio CC50/IC50 [4],inhibition (Leishmania donovani [5]),inhibition in vivo at 50 mg/kg (Leishmania donovani [6]),inhibition (Leishmania donovani [6]),Ratio CC50/IC50 (J774.A1)
O=[N+]([O-])c1ccc(O[C@H]2CCCC[C@@H]2n2ccnc2)c(F)c1 (racemic),2.15 µg/mL,95.7%,14.2 µg/mL,6.62,,,,
O[C@H]1CCc2ccccc2[C@@H]1n1ccnn1 (racemic),,90.4%,35.6 µg/mL,,inactive,,,
FC(F)(F)c1ccc(O[C@H]2CCc3ccccc3[C@@H]2n2ccnc2)cc1 (racemic),,60%,52.5 µg/mL,,inactive,,,
O=[N+]([O-])c1ccc(O[C@H]2CCc3ccccc3[C@@H]2n2ccnc2)c(C(F)(F)F)c1 (racemic),1.59 µg/mL,91.2%,10.7 µg/mL,6.73,,,,
O=[N+]([O-])c1ccc(O[C@H]2CCc3ccccc3[C@@H]2n2ccnn2)cc1 (racemic),,99.6%,> 100 µg/mL,,inactive,,,
O=[N+]([O-])c1ccc(O[C@H]2CCc3ccccc3[C@@H]2n2ccnn2)c(F)c1 (racemic),,100%,> 100 µg/mL,,inactive,,,
FC(F)(F)c1ccc(O[C@H]2CCCC[C@@H]2n2ccnc2)cc1 (racemic),,99.8%,,,inactive,,,
O=[N+]([O-])c1ccc(O[C@H]2CCCC[C@@H]2n2ccnc2)cc1 (racemic),2.23 µg/mL,98.6%,8.27 µg/mL,3.7,,,,
O=[N+]([O-])c1cc(C(F)(F)F)ccc1O[C@H]1CCCC[C@@H]1n1ccnc1 (racemic),5.07 µg/mL,99%,22.1 µg/mL,4.36,,,,
Clc1ccc(Cl)c(CO[C@H]2CCCC[C@@H]2n2ccnc2)c1 (racemic),4.03 µg/mL,89.6%,27.2 µg/mL,6.73,,,,
Clc1ccc(CO[C@H]2CCCC[C@@H]2n2ccnc2)c(Cl)c1 (racemic),2.44 µg/mL,99.5%,3.43 µg/mL,1.41,,,,
NC[C@@H]1O[C@H](O[C@H]2[C@@H](O)[C@H](O[C@@H]3[C@@H](O)[C@H](N)C[C@H](N)[C@H]3O[C@H]3O[C@H](CO)[C@@H](O)[C@H](O)[C@H]3N)O[C@@H]2CO)[C@H](N)[C@@H](O)[C@@H]1O [PAROMOMYCIN],24.8 µg/mL,124%,53.3 µg/mL,2.15,,46.7%,,
sodium stibogluconate,,,,,,,92.2%,6.38

# Now from value to compound, other results behind:
IC50 (Leishmania donovani [2]),Compound,inhibition at 10 µg/mL (Leishmania donovani [1]),CC50 [3],Ratio CC50/IC50 [4],inhibition (Leishmania donovani [5]),inhibition in vivo at 50 mg/kg (Leishmania donovani [6]),inhibition (Leishmania donovani [6]),Ratio CC50/IC50 (J774.A1)
> 50 µg/mL,O[C@H]1CCc2ccccc2[C@@H]1n1ccnc1 (racemic),60%,> 100 µg/mL,2,,,,
4.53 µg/mL,O=[N+]([O-])c1ccc(O[C@H]2CCc3ccccc3[C@@H]2n2ccnc2)cc1 (racemic),94.9%,21.4 µg/mL,4.73,,,,
6.52 µg/mL,O=[N+]([O-])c1ccc(O[C@H]2CCc3ccccc3[C@@H]2n2ccnc2)c(F)c1 (racemic),100%,32.1 µg/mL,4.92,,,,
3.58 µg/mL,O=[N+]([O-])c1cc(C(F)(F)F)ccc1O[C@H]1CCc2ccccc2[C@@H]1n1ccnc1 (racemic),99.6%,20.1 µg/mL,5.61,,,,
0.64 µg/mL,Clc1ccc(Cl)c(CO[C@H]2CCc3ccccc3[C@@H]2n2ccnc2)c1 (racemic),100%,22.3 µg/mL,34.78,,83.3%,,
1.34 µg/mL,Clc1cccc(CO[C@H]2CCc3ccccc3[C@@H]2n2ccnc2)c1 (racemic),100%,15.5 µg/mL,11.53,,32.1%,,
3.01 µg/mL,Clc1cccc(CO[C@H]2CCc3ccccc3[C@@H]2n2ccnn2)c1 (racemic),100%,30.2 µg/mL,10.03,,,,
1.4 µg/mL,Clc1cccc(CO[C@H]2CCCC[C@@H]2n2ccnc2)c1 (racemic),96.9%,12.8 µg/mL,9.1,,,,
